Read-outs that look alike come from different tables or passages of the source.
Assays:
[1] = target: T1, lysyl oxidase (LOX) (Homo sapiens, UniProt P28300); conditions: normal sclera cells, FIG. 8
Target sequence in this assay (P28300 169-417, species assumed): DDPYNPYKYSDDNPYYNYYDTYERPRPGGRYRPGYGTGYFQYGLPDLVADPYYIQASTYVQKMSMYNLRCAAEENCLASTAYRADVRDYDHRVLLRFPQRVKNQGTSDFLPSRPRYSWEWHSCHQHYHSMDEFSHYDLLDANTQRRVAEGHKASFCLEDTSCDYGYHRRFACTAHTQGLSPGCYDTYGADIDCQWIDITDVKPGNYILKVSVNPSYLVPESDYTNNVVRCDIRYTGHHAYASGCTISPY

[2] = system: sclera of guinea pig pups; conditions: 0.08 mg/mL copper perchlorate hexahydrate eye drops twice a day, 6-8 weeks, n=5; untreated sclera 3.9×10^−4; p=0.036
Description: Lysyl oxidase converts lysine to allysine, and conjugates it to lysine or hydroxylysine spontaneously, becoming lysinonorleucine (LNL), an established biomarker of collagen crosslinking. […] After 6 weeks the scleras were dissected and analyzed for LNL content using mass spectroscopy (LC-MS). Semi-quantitative mass spectral analysis was performed using a Sciex 6500 Q-Trap (Sciex, Framingham, MA).

[3] = system: sclera of guinea pig pups; conditions: 0.08 mg/mL copper perchlorate hexahydrate eye drops twice a day, 8 weeks, n=3, vs untreated sclera, FIG. 3
Description: After eight weeks the sclera was dissected for creep compliance testing. Compliance was tested using an Instrong 5943 Mechanical Testing system with custom grips and a 5 N Futek load cell. Each of the six specimens were loaded to 0.005 kgf, corresponding to an equivalent pressure of 12.0-16.6 mmHg depending on specimen dimensions.

[4] = target: T1, lysyl oxidase (LOX)
Description: To examine LOX activity in normal corneal cells with copper perchlorate and to compare activity with copper sulfate, cultured corneal stroma cells from normal corneas (n=3 each) in 10% fetal bovine serum (FBS) DMEM were either exposed to copper sulfate or copper perchlorate in BSS then filtered through a 0.25 μm filter. Conditioned culture medium underwent a peroxidase-coupled fluorometric activity assay for LOX using Amplex red. As a parallel assay, we added 500 uM aminopropionitrile (BAPN) which can diminish LOX activity completely. The fluorescence of oxidized Amplex red was recorded every 10 minutes using fluorescence plate reader. After subtracting the background fluorescence, the fluorescence intensity was plotted against the incubation time (FIG. 1).
Target sequence in this assay (P28300 169-417): as the sequence (P28300 169-417, species assumed) above

[5] = system: genetic model of guinea pig myopia; conditions: 0.22 mg/ml once a day
Description: 0.22 mg/ml copper perchlorate was administered once a day for approximately 3 months to right eye only. The cycloplegic refraction was measured biweekly by a masked pediatric ophthalmologist.

[6] = system: spontaneous myopic albino guinea pigs; assay: Spontaneous myopic progression in albino guinea pig pups; conditions: 0.22 mg/mL twice a day
Description: Spontaneous myopic albino guinea pigs were used as a model of pediatric myopia. […] Pups of albino guinea pigs were used as a pediatric model starting at age 4-7 days. In this group of n=5 pups, all left eyes were untreated (internal control). The other eye (right eye) was treated with 0.22 mg/mL copper perchlorate hexahydrate twice a day. Treatment started at approximately 1 week of age and continued for approximately 2 months. Measurements were taken between 5-7 days of age (baseline-no treatment) and then biweekly. We examined refractive error by streak retinoscopy after dilation, and axial length by Lenstar biometry (Haag-Streit). Cycloplegic refractive error and cornea inflammation was measured by a masked pediatric ophthalmologist.

[7] = system: genetic model of guinea pig myopia; assay: Genetic model of guinea pig myopia, 0.35 mg/ml eye drops twice a day
Description: Copper perchlorate was administered at 0.35 mg/ml to guinea pigs.

## O.O.O.O.O.O.[Cu+2].[O-][Cl+3]([O-])([O-])[O-].[O-][Cl+3]([O-])([O-])[O-] [copper perchlorate, copper (II) perchlorate hexahydrate]
[1]
  LOX enzyme activity: dramatically increased LOX enzyme activity in a dose response manner
[2]
  LNL response in treated sclera: 0.00069 µg/mg
[3]
  scleral creep compliance: decreased creep compliance
[4]; concentrations as low as 100 nM
  LOX activity compared with the same molar concentration of copper sulfate: increased LOX activity more than the same molar concentration of copper sulfate
[4]; keratoconic human cornea stroma cells, concentration as low as 100 nM, FIG. 1B
  induction of LOX activity compared with copper sulfate: higher induction of LOX activity than copper sulfate
[4]; normal corneal stroma cells, conditioned culture medium, FIG. 1a
  LOX enzyme activity: dramatically increased LOX enzyme activity in a dose response manner
[5]; Day 81
  more myopia developed in untreated left eyes than in treated right eyes (change from baseline): 2.27 diopters
[5]; about 3 months, right eye only, p=0.0189
  slope analysis: refractive error decrease, untreated left eye more than treated right eye: 0.027(sd=0.011) per day
[6]; FIG. 5
  axial length, treated eye (OD) compared to control eye (OS): trend of reducing
  vitreous chamber depth, treated eye (OD) compared to control eye (OS): trend of reducing
[6]; about 2 months, topical to right eye
  clinical observations of toxicity or discoloration of corneas: no toxicity or discoloration
[6]; within 9 weeks of treatment, treated vs control eye, n=5
  slowing of myopic progression in refractive error: 48%
[7]; n=5
  myopia at the end of the experiment, treated versus control eyes: significantly less myopic
[7]; n=5, p<0.05
  axial elongation, treated versus control eye: significantly reduced
  vitreous chamber depth elongation, treated versus control eye: significantly reduced

Reference: US20240122974A1, “TREATMENT OF MYOPIA” (University of Utah Research Foundation, priority 2021, published 2024)
